Data set [1] deals with MCP-1. Nature of the data set: MCP-1 ELISA in retinoic acid-treated normal human skin keratinocytes. In kind it is cell-based. To be noted: NHEKs, 24 hours. On the procedure:
One day before the testing, normal human skin keratinocytes (NHEKs, Lonza) were added to a 96-well plate with 5×10^4 cells/well and cultured in a 5% CO2 incubator at 37° C. for 24 hours. 24 hours later, the cells were washed with PBS twice and the cell culture medium was replaced with a serum-free keratinocyte basement medium (KBM). […] The retinoic acid is known to promote the secretion of the inflammatory cytokine MCP (monocyte chemoattractant protein-1) as a skin irritant. […] For the ELISA, the method provided by BD Science was used.
On the technique in general: An ELISA detects its analyte on a solid surface through an enzyme-linked reagent.

Data set [2] can be described thus: Skin irritation test by sensitive panels. In kind it is in vivo, human. To be noted: scale 0-3.0. The source says:
0.5-1.0: Slight irritation.
1.1-2.0: Moderate irritation.
2.1-3.0: Severe irritation.

Data set [3] relates to collagenase. Nature of the data set: Collagenase expression suppression in human fibroblasts. In kind it is cell-based. To be noted: 10^−4 M, 24 hours, untreated group = 100. The procedure:
Tocopherol and EGCG are known to prevent skin aging by regenerating epidermal cells.
Human fibroblasts were added to a 96-well microtiter plate containing Dulbecco's modified Eagle's medium (DMEM) supplemented with 2.5 wt % fetal bovine serum, with 5,000 cells/well, and cultured to about 90% confluence.
The production of collagenase in the cell culture was measured using a collagenase measuring system (Amersham Pharmacia, USA). First, the harvested cell culture was added to a 96-well plate having primary collagenase antibodies applied uniformly thereto and was incubated for 3 hours in a constant-temperature bath. 3 hours later, after adding chromophore-conjugated secondary collagen antibodies to the 96-well plate, incubation was performed for 15 minutes. 15 minutes later, a substance inducing color development was added and color development was induced at room temperature for 15 minutes. […] The intensity of the yellow color varied depending on the degree of progress of the reaction.
A cell culture obtained without treating with the composition was used as a control group. That is to say, the expression level of collagenase in the group treated with the test substance was calculated relative to that of the untreated group as 100.
Collagenase expression level(%)=Absorbance of group treated with test substance/Absorbance of control group×100 [Equation 1]

Data set [4] concerns Mel-Ab cells. Nature of the data set: Melanin production inhibition in Mel-Ab cells (Dooley's method). The format is cell-based, mouse. To be noted: 10 ppm, added for 3 consecutive days. On the procedure:
Melanocytes derived from C57BL/6 mouse (Mel-Ab cells) (Dooley, T. P. et al, Skin Pharmacol, 7, pp. 188-200) were cultured in DMEM supplemented with 10% fetal bovine serum, 100 nM 12-O-tetradecanoylphorbol-13-acetate and 1 nM cholera toxin under the condition of 37° C. and 5% CO2. The cultured Mel-Ab cells were detached with 0.25% trypsin-EDTA and cultured in a 24-well plate with a concentration of 10^5 cells/well. During the culturing, each test substance was added for 3 consecutive days starting from day 2. […] After removing the medium, the cells were washed with phosphate-buffered saline (PBS) and lysed with 1 N sodium hydroxide. After measuring absorbance at 400 nm, the melanin production inhibition was calculated according to Equation 2.
Melanin production inhibition(%)=100−(Absorbance of group treated with test substance/Absorbance of control group×100) [Equation 2]

Data set [5] in a line: DPPH method, antioxidative effect. In kind it is biochemical. To be noted: sample concentration at which DPPH absorbance (540 nm) decreased by 50%; 37° C., 30 minutes. The procedure: The DPPH method evaluates antioxidative effect by measuring and comparing the effect of suppressing DPPH oxidation based on the change in absorbance caused by the reduction of DPPH. […] After incubation at 37° C. for 30 minutes, absorbance was measured at 540 nm. The analysis result is shown in Table 3, where IC50 means the sample concentration when the absorbance was decreased by 50% due to the added sample.

[6] abbreviates: 0.5 mL on cheek, 15 sensitive panels.

For the compound `C[C@]12CCC(=O)C=C1CC[C@@H]1[C@@H]2[C@@H](O)C[C@@]2(C)[C@H]1CC[C@]2(O)C(=O)CO` [Hydrocortisone, hydrocortisone], the MCP-1 secretion in data set [1] (100 nM + retinoic acid 10 μM) worked out at 448.3 pg/mL.

In the case of `O=c1cc(CO)occ1O` [Kojic acid, kojic acid], in data set [2] (setting [6]), the Flushing score was determined as 0.43 points and the Pricking score is on record as 0.81 points. Further, the Mean irritation score in data set [2] (mean of pricking and flushing) stood at 0.62 points.

In data set [3], tocopherol returned a Collagenase expression level of 81%.

`CC1=C(/C=C/C(C)=C/C=C/C(C)=C/C(=O)O)C(C)(C)CCC1` [Retinoic acid, retinoic acid]: the MCP-1 secretion in data set [1] (retinoic acid 10 μM alone, untreated group 527.3) worked out at 804.5 pg/mL.

As for `O=C(O[C@@H]1Cc2c(O)cc(O)cc2O[C@@H]1c1cc(O)c(O)c(O)c1)c1cc(O)c(O)c(O)c1` [EGCG], in data set [3], the Collagenase expression level worked out at 59%.

The compound `Oc1ccc(O)cc1` [Hydroquinone, hydroquinone] came in with a Melanin production inhibition in data set [4] of 57.5%.

Take `Cc1c(C)c2c(c(C)c1O)CCC(C)(C(=O)O)O2` (stereo not drawn) [Trolox]: the IC50 in data set [5] is recorded as 57 ppm.

(Values after patent US20170196797A1 (AMOREPACIFIC CORPORATION, priority 2014, published 2017).)
